# Data published in ChEMBL document CHEMBL1201862, “PubChem BioAssay data set” (2004).
#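 48-hour exposure; five concentrations; linearly interpolated endpoints. GI50 = concentration required for 50% inhibition of growth.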 Calls of active or inactive are those of the source. Rule as the data show it: active = GI50 up to about 1.1 µM and inactive = higher.
# Legend:
# Experiment in all cases: inhibition of tumour cell growth, NCI panel, 48 h
# OVCAR-4 = system: OVCAR-4
# SR = system: SR
# EKVX = system: EKVX
# HT-29 = system: HT-29
# SF-539 = system: SF-539
# MCF7 = system: MCF7
# OVCAR-5 = system: OVCAR-5
# 786-0 = system: 786-0
# MDA-MB-435 = system: MDA-MB-435
# SF-268 = system: SF-268
# NCI-H460 = system: NCI-H460
# A498 = system: A498
# RXF 393 = system: RXF 393
# UO-31 = system: UO-31
# HCT-15 = system: HCT-15
# M14 = system: M14
# UACC-62 = system: UACC-62
# U-251 = system: U-251
# SNB-75 = system: SNB-75
# BT-549 = system: BT-549
SMILES,GI50 (OVCAR-4),GI50 (SR),GI50 (EKVX),GI50 (HT-29),GI50 (SF-539),GI50 (MCF7),GI50 (OVCAR-5),GI50 (786-0),GI50 (MDA-MB-435),GI50 (SF-268),GI50 (NCI-H460),GI50 (A498),GI50 (RXF 393),GI50 (UO-31),GI50 (HCT-15) [µM],GI50 (M14),GI50 (UACC-62),GI50 (U-251),GI50 (SNB-75),GI50 (BT-549)
O=C(/C=C/c1ccc(O)c(O)c1O)OCCc1ccccc1,15.9 µM (inactive),15.8 µM (inactive),> 100 µM (inactive),22.7 µM (inactive),37.3 µM (inactive),14.5 µM (inactive),41.9 µM (inactive),16 µM (inactive),17.5 µM (inactive),32.1 µM (inactive),21.6 µM (inactive),74.6 µM (inactive),36.1 µM (inactive),38.7 µM (inactive),23.4,20 µM (inactive),34 µM (inactive),26.1 µM (inactive),–,–
CC(C)/C(Cl)=N\OC(NC(=O)P(=O)(c1ccccc1)c1ccccc1)(C(F)(F)F)C(F)(F)F,5 µM (inactive),14.7 µM (inactive),20 µM (inactive),16.1 µM (inactive),13.5 µM (inactive),13.3 µM (inactive),24.3 µM (inactive),10.3 µM (inactive),16.3 µM (inactive),12.1 µM (inactive),15.2 µM (inactive),14.9 µM (inactive),14.6 µM (inactive),7.05 µM (inactive),15.9,4.14 µM (inactive),16 µM (inactive),2.88 µM (inactive),< 0.01 µM (active),–
COC(=O)C(/C(=N\O)C(=O)Nc1ccc(Br)cc1)c1nc2ccccc2nc1O (configuration not stated),64.7 µM (inactive),18.2 µM (inactive),67.3 µM (inactive),57.1 µM (inactive),24.4 µM (inactive),–,> 100 µM (inactive),31 µM (inactive),–,39.2 µM (inactive),89.9 µM (inactive),61 µM (inactive),36.7 µM (inactive),> 100 µM (inactive),64.7,58.9 µM (inactive),26.9 µM (inactive),34 µM (inactive),23.6 µM (inactive),–
Cc1ccc(S(=O)OCc2c(C)c(C)c(COS(=O)c3ccc(C)cc3)c(C)c2C)cc1 (configuration not stated),> 100 µM (inactive),> 100 µM (inactive),> 100 µM (inactive),> 100 µM (inactive),> 100 µM (inactive),–,> 100 µM (inactive),> 100 µM (inactive),–,> 100 µM (inactive),> 100 µM (inactive),> 100 µM (inactive),> 100 µM (inactive),> 100 µM (inactive),> 100,> 100 µM (inactive),> 100 µM (inactive),> 100 µM (inactive),> 100 µM (inactive),–
COC(=O)C1=C(C)NC(=S)NC1c1ccc(N(CCCl)CCCl)cc1Cl (configuration not stated),16.3 µM (inactive),–,2.11 µM (inactive),32.5 µM (inactive),> 72.6 µM (inactive),16.7 µM (inactive),56.5 µM (inactive),51.3 µM (inactive),12.5 µM (inactive),23.9 µM (inactive),22 µM (inactive),–,> 34.9 µM (inactive),35.8 µM (inactive),9.91,32.5 µM (inactive),3.05 µM (inactive),53.6 µM (inactive),> 54.6 µM (inactive),–
CNC(=O)CN(CC(=O)O)C(=O)NC,> 100 µM (inactive),> 100 µM (inactive),> 100 µM (inactive),> 100 µM (inactive),> 100 µM (inactive),–,> 100 µM (inactive),> 100 µM (inactive),–,> 100 µM (inactive),–,> 100 µM (inactive),> 100 µM (inactive),> 100 µM (inactive),> 100,> 100 µM (inactive),> 100 µM (inactive),> 100 µM (inactive),> 100 µM (inactive),–
CC(C)(Cl)C(Br)CCC(C)(Br)C(Br)CBr (configuration not stated),18.7 µM (inactive),–,25.4 µM (inactive),15.8 µM (inactive),15.6 µM (inactive),–,15.7 µM (inactive),17.4 µM (inactive),17.8 µM (inactive),16.9 µM (inactive),15.3 µM (inactive),19.3 µM (inactive),22.1 µM (inactive),19 µM (inactive),17.1,17.7 µM (inactive),17.7 µM (inactive),16.5 µM (inactive),–,22.3 µM (inactive)
C[P+](C)(CC(F)(F)F)c1ccccc1,–,> 100 µM (inactive),> 100 µM (inactive),> 100 µM (inactive),> 100 µM (inactive),–,> 100 µM (inactive),> 100 µM (inactive),–,–,> 100 µM (inactive),> 100 µM (inactive),> 100 µM (inactive),> 100 µM (inactive),> 100,> 100 µM (inactive),> 100 µM (inactive),> 100 µM (inactive),> 100 µM (inactive),–
N#CCN1CCOCCOCCN(CC#N)CCOCCOCC1,> 100 µM (inactive),> 100 µM (inactive),> 100 µM (inactive),> 100 µM (inactive),> 100 µM (inactive),–,> 100 µM (inactive),> 100 µM (inactive),–,> 100 µM (inactive),> 100 µM (inactive),> 100 µM (inactive),> 100 µM (inactive),> 100 µM (inactive),> 100,> 100 µM (inactive),> 100 µM (inactive),–,> 100 µM (inactive),–
C#CC1/C(=C\C(=O)OC)CCCC1O (configuration not stated),> 100 µM (inactive),> 100 µM (inactive),> 100 µM (inactive),> 100 µM (inactive),> 100 µM (inactive),–,> 100 µM (inactive),> 100 µM (inactive),–,> 100 µM (inactive),> 100 µM (inactive),> 100 µM (inactive),> 100 µM (inactive),> 100 µM (inactive),> 100,> 100 µM (inactive),> 100 µM (inactive),> 100 µM (inactive),> 100 µM (inactive),–
COc1cc(OC)c2c(=O)c3c([N+](=O)[O-])cccc3n(C)c2c1,> 100 µM (inactive),> 100 µM (inactive),> 100 µM (inactive),> 100 µM (inactive),> 100 µM (inactive),–,> 100 µM (inactive),> 100 µM (inactive),–,> 100 µM (inactive),> 100 µM (inactive),> 100 µM (inactive),> 100 µM (inactive),> 100 µM (inactive),> 100,> 100 µM (inactive),> 100 µM (inactive),94.8 µM (inactive),> 100 µM (inactive),–
COc1cc(OC2OC(CO)C(O)C(O)C2O)c2c(c1)O[C@@H]1[C@H](O)Oc3cc(OC)c(OC)cc3[C@]1(O)C2=O (some centres not stated),> 25 µM (inactive),> 25 µM (inactive),> 25 µM (inactive),> 25 µM (inactive),> 25 µM (inactive),> 25 µM (inactive),> 25 µM (inactive),> 25 µM (inactive),> 25 µM (inactive),> 25 µM (inactive),> 25 µM (inactive),> 25 µM (inactive),–,> 25 µM (inactive),> 25,> 25 µM (inactive),> 25 µM (inactive),> 25 µM (inactive),> 25 µM (inactive),–
CC1=C(C(=O)NCc2ccccc2)C(c2ccccc2O)C(C(=O)NCc2ccccc2)=C(C)N1,17 µM (inactive),28.9 µM (inactive),22.2 µM (inactive),19.5 µM (inactive),18.4 µM (inactive),–,18.9 µM (inactive),19.3 µM (inactive),–,22.9 µM (inactive),18.4 µM (inactive),19 µM (inactive),17.9 µM (inactive),16.7 µM (inactive),13.6,17.9 µM (inactive),16.1 µM (inactive),15.5 µM (inactive),23.6 µM (inactive),–
O=S(=O)(/N=c1\[nH]c(-c2cc(O)c(O)c(O)c2)cs1)c1ccc(Cl)cc1Cl,22.1 µM (inactive),–,18.1 µM (inactive),22.8 µM (inactive),27.6 µM (inactive),17.6 µM (inactive),18.2 µM (inactive),19.7 µM (inactive),22.2 µM (inactive),20.5 µM (inactive),18.7 µM (inactive),53.1 µM (inactive),25.5 µM (inactive),20.4 µM (inactive),17.2,22.1 µM (inactive),> 100 µM (inactive),19 µM (inactive),25.7 µM (inactive),–
CCOC(=O)[C@@H]1[C@@H](c2ccccc2)N(C)O[C@@]1(c1ccccc1)C(F)(F)F,77.3 µM (inactive),–,86.3 µM (inactive),18.7 µM (inactive),–,–,> 100 µM (inactive),> 100 µM (inactive),28.4 µM (inactive),> 100 µM (inactive),–,> 100 µM (inactive),40.2 µM (inactive),> 100 µM (inactive),40.1,31 µM (inactive),43.5 µM (inactive),50.4 µM (inactive),> 100 µM (inactive),> 100 µM (inactive)
CCOP(=O)(OCC)C(c1ccccc1)N(C(=O)NC(F)(F)F)c1cccc(F)c1 (configuration not stated),–,> 100 µM (inactive),94.8 µM (inactive),> 100 µM (inactive),> 100 µM (inactive),> 100 µM (inactive),> 10 µM (inactive),> 100 µM (inactive),> 100 µM (inactive),> 100 µM (inactive),> 100 µM (inactive),–,64.7 µM (inactive),58.6 µM (inactive),81.5,> 100 µM (inactive),–,> 100 µM (inactive),> 100 µM (inactive),–
CN1CCN(CN2C(=O)C3C4C=CC(C3C2=O)C2C3C(=O)N(CN5CCN(C)CC5)C(=O)C3C42)CC1 (configuration not stated),21.3 µM (inactive),16.4 µM (inactive),–,33.4 µM (inactive),22.2 µM (inactive),–,30.8 µM (inactive),18.2 µM (inactive),–,25.3 µM (inactive),16.1 µM (inactive),93.1 µM (inactive),22.9 µM (inactive),30.3 µM (inactive),16.9,16.4 µM (inactive),22.2 µM (inactive),20.8 µM (inactive),27.4 µM (inactive),–
